Where two headings read alike, the source gives them in different places. Marks after values point to notes of the source that are not given here.
What was measured:
[1] = Surface tension and CMC, Fisher tensiometer, du Noüy ring method; assay type: physicochemical; parameters: γ CMC (surface tension at CMC): unit not given here; conditions: pH 7.0; synthetic samples
Description: Biosurfactants are molecules that can associate with each other leading to the formation of micelles. They can also interact with surfaces between phases of different polarity such as the air/water or oil/water interface.[77] To gain quantitative insights into the surface-active properties of microbial glycolipids, the surface tensions at CMC (γCMC) of ananatoside A (1) and ananatoside B (2) were measured using a Fisher tensiometer by means of the du Noüy ring method. The CMC, referring to the concentration of surfactant at which micelles start to form, was determined from a plot of surface tension again each concentration. […] Consequently, the surface tension measurements were performed quickly to avoid the precipitation of ananatoside A (1) into the aqueous medium.

[2] = Emulsifying activity against hydrocarbon contaminants; assay type: physicochemical; conditions: cyclohexane and kerosene
Description: Therefore, the emulsifying properties of microbial biosurfactants 1–3 were evaluated against light as well as heavy hydrocarbon contaminants such as cyclohexane and kerosene, respectively (see Fig. S7 ^†).

[3] = parameters: method as in PMID 17105155; conditions: estimated; cited from earlier work
[4] = tested on: tomato leaf disks; test: Extracellular ROS production, luminol chemiluminescence; assay type: cell-based, Solanum lycopersicum; conditions: 100 μM, monitored over 720 min
Description: Bacterial rhamnolipids, such as compound 3, trigger the plant immune system, which can ultimately lead to plant protection against diseases caused by fungal and bacterial pathogens.[23] As ananatoside A (1) and ananatoside B (2) share structural similarities with rhamnolipid 3 and because they have been isolated from P. ananatis cultures, an emerging plant pathogen causing important agricultural damage worldwide,[81] we wanted to investigate whether these bacterial glycolipids, along with our unprecedented series of synthetic rhamnolactones, could be perceived by the plant immune system. We relied on measuring the extracellular content of reactive oxygen species (ROS) produced by tomato plants (Solanum lycopersicum) following treatment with the synthetic compounds, as an early and important marker of plant immunity.[20,22,82] Tomato leaves were challenged with synthetic glycolipids 1–6 at concentrations of 100 μM and the production of ROS was monitored over a 720 min time frame (Fig. 5).
Fig. 5 Extracellular reactive oxygen species (ROS) production following treatment of tomato leaf disks with ananatoside A (1), ananatoside B (2), RhaC10C10 (3), and related macrodilactone-containing rhamnolipids (4–6). Production of ROS was measured in tomato leaf disks following treatment at 100 μM with synthetic glycolipids (1–6). MeOH (0.5%) was used as a control. ROS production was measured using the chemiluminescence of luminol and photon counts were expressed as relative luminescence units (RLUs). Data are mean ± SEM (n = 6). Experiments were independently realized three times with similar results. […]
Plant Material and Growth Conditions. Tomato plants (Solanum lycopersicum L var. Ailsa craig, Scotland) were grown on soil in growth chamber with white fluorescent light [200 μmol•(m−2 s−1)], under 16 h/8 h light/dark regime, 60% relative humidity , and a temperature of 24 /20 °C during four weeks prior treatment. Arabidopsis thaliana plants (ecotype Col -0) were grown on soil in growth chambers with white fluorescent light (150 μmol m−2 s−1), under 12 h/12 h light/dark regime, 60% relative humidity, and a temperature of 20/20 °C during six weeks prior treatment.
Reactive Oxygen Species (ROS) Production. ROS assays were performed on four-week old tomato plants or six-week old Arabidopsis plants. Briefly, tomato leaf disks of 6 mm diameter or Arabidopsis petiole sections of 5 mm long were cut and placed in a 96-well plate (Optiplate TM-96 white, PerkinElmer) containing 150 µL of distilled H2O and then incubated at rt for 24 h to reduce the wounding response.11 The elicitation solution containing 0.2 µg•mL−1 luminol (A4685-5 g, Sigma), […] (P6782, Sigma) and the tested glycolipids (1, 2, 3, 4, 5α, 5β, 6α or 6β) at 100 μM was prepared. Methanol (0.5%) was used as negative control. Prior elicitation, the incubating distilled H2O was carefully removed from each well, avoiding any tissue damage or desiccation. Then, the elicitation solution (150 µL) was quickly added to each well containing a leaf disk or a petiole. Luminescence (relative light units, RLU) was measured every 4

[5] = tested on: sheep blood erythrocytes; test: Hemolytic activity; assay type: cell-based
Description: Owing to their surfactant properties, glycolipids can break the membrane of red blood cells causing hemolytic activity.[18] To understand if the cytotoxicity of macrolactones 1, 4, 5β, and 6β was due to their surface tension activity, we evaluated the hemolytic potential of synthetic glycolipids 1–6 against sheep erythrocytes (Table 5). […] The non-cytotoxic rhamnolipid 3 was also found to exert a weak hemolytic activity (HC50 = 65 ± 6 μM). […]
Hemolytic Activity. The hemolytic activity of the synthetic surfactants was evaluated as previously described with small modifications.10 Defibrinated sheep blood (Oxoid) was centri fuged at 1000 × g for 5 min. The pellet containing erythrocytes was washed once and suspended in 1X PBS to obtain a 1% erythrocytes suspension. All samples were suspended in DMSO/PBS (5:1 v/v) and serially diluted in a 96 -well plate to obtain a range of co ncentrations from 1 mM to 7.8 µM.
The erythrocytes suspension (160 µL) was added to 40 µL of samples to obtain final concentrations […]
ranging between 200 µM and 1.56 µM. Triton X-100 was used as a positive hemolysis control.
The plate was then incubated at 37 °C with agitation at 150 rpm for 1 h and centrifuged at 1500 × g for 5 min. The supernatant was transferred in an empty plate and absorbance was measured at 540 nm using a Cytation3 microplate reader (Biotek). HC50 was calculated in comparison with the positive control. The experiment was performed in triplicate and repeated three times. […]

[6] = Cytotoxicity, resazurin assay, summary over cell lines; assay type: cell-based; conditions: human, DLD-1 and WS1 cells (summary over the three lines); A549, DLD-1 and WS1; read-out: Cytotoxicity IC50 against human cell lines
Description: (§1) As the anticancer potential of microbial rhamnolipids has previously been reported,[16] we next sought to evaluate the in vitro cytotoxicity of our synthetic and natural glycolipids 1–6 against cancerous cell lines, i.e., human lung carcinoma (A549) and colorectal adenocarcinoma (DLD-1). The compounds were also tested against human normal skin fibroblasts (WS1) to estimate their selectivity towards cancer cells.
(§2) 4. Experimental Procedures for Biological Evaluation and Surfactant Properties. […]
(§3) Cell Culture. Human lung carcinoma (A549), human colorectal adenocarcinoma (DLD-1), and human normal skin fibroblasts (WS1) cell lines were obtained from the American Type Culture Collection (ATCC). All cell lines were cultured in minimum essential medium containing Earle’s […]
(§4) salts and L-glutamine (Mediatech Cellgro, VA), to which were added 10% foetal bovine serum (Hyclone), vitamins (1×), penicillin (100 IU•mL-1), streptomycin (100 µg•mL−1), essential amino acids (1×), and sodium pyruvate (1×) (Mediatech Cellgro, VA). Cells were kept at 37 °C in a humidified environment containing 5% CO2.
(§5) Cytotoxicity Assay. Exponentially growing A549, DLD-1 or WS1 cells were plated in 96-well microplates (Costar, Corning Inc.) at a density of 5 × 10^3 cells per well in 100 µL of culture medium and were allowed to adhere for 16 h prior treatment. Increasing concentrations of each compound in biotech DMSO (Sigma-Aldrich) were then added (100 µL per well) and the cells were incubated for 48 h. The final concentration of DMSO in the culture medium was maintained at 0.5% (v/v) to avoid solvent toxicity. Cytotoxicity was assessed using resazurin9 on an automated 96-well Fluoroskan Ascent F1TM plate reader (Labsystems) using excitation and emission wavelengths of 530 and 590 nm, respectively. Fluorescence was proportional to the cellular metabolic activity in each well. Survival percentage was defined as the fluorescence in experimental wells as compared to that in control wells after subtraction of blank values. Each experiment was carried out three times in triplicate. IC50 results were expressed as means ± standard deviation. […]

[7] = Dynamic light scattering (Zetasizer), hydrodynamic diameter of micelles; assay type: physicochemical; conditions: pH 7.0; concentration 80 μM
Description: In parallel to these experiments, we took advantage of dynamic light scattering (DLS) to evaluate the hydrodynamic diameter of biosurfactant micelles formed at concentrations above the CMC (Table 4).[79] DLS considers the intensity of light scattered by spherical particles, which prevents its application for highly polydisperse and non-spherical colloidal systems. […] Once again, due to its hydrophobicity, ananatoside A (1) was too polydisperse for conducting a proper distribution analysis, showing a Z-average value above 800 nm, which meant that the particles were aggregated in water at the tested concentration. Similar results were obtained for ananatoside A (1) when the DLS experiments were conducted in DMSO as the solvent.

[8] = Cytotoxicity, resazurin assay; assay type: cell-based, human; conditions: human, max tested 200 μM
Description: as §1, §2, §3, §4, §5

[9] = tested on: human colorectal adenocarcinoma (DLD-1); test: Cytotoxicity, resazurin assay; assay type: cell-based; conditions: 48 h, max tested 200 μM
Description: as §1, §2, §3, §4, §5

[10] = tested on: human normal skin fibroblasts (WS1); test: Cytotoxicity, resazurin assay; assay type: cell-based; conditions: 48 h, max tested 200 μM
Description: as §1, §2, §3, §4, §5

[11] = tested on: human lung carcinoma (A549); test: Cytotoxicity, resazurin assay; assay type: cell-based; conditions: 48 h, max tested 200 μM
Description: as §1, §2, §3, §4, §5

[12] = sheep blood erythrocytes, 1 h, 37 °C, max tested 200 μM
[13] = DLD-1 colorectal adenocarcinoma cells

Compound | Extracellular ROS production [4] | Hemolysis (HC50 in μM) Erythrocytes [5, 12] | IC50 at 48 h [6] [µM] | IC50 at 48 h ([8]; A549 lung carcinoma cells) [µM] | IC50 at 48 h [8, 13] [µM] | IC50 at 48 h ([8]; WS1 normal skin fibroblasts) [µM] | also measured
CCCCCCC[C@H](CC(=O)O)OC(=O)C[C@@H](CCCCCCC)O[C@@H]1O[C@@H](C)[C@H](O)[C@@H](O)[C@H]1O [Compound 3, RhaC10C10] | triggered a long-lasting and strong production of ROS | 65 ± 6 µM | > 200 | > 200 | > 200 | > 200 | CMC (critical micelle concentration) [1]: 58 ± 1 µM; γ CMC (surface tension at CMC) [1]: 30 ± 1; Emulsifying activity [2]: equally able to generate emulsions with cyclohexane and kerosene; pKa [3]: 5.5; Z-Average (hydrodynamic diameter of micelles) [7]: 92.1 nm
CCCCCCCC1CC(=O)OC2C(C)OC(OC(CCCCCCC)CC(=O)O1)C(O)C2O (stereo not shown) [Compound 4] |  | 12.0 ± 0.7 µM | 50 to 112 | 56 ± 2 | 70 ± 10 | 57 ± 1 | 
CCCCCCCC1CC(=O)OC2C(OC(CCCCCCC)CC(=O)O1)OC(C)C(O)C2O (stereo not drawn) [Compound 5α] | did not show a similar sensing pattern | >200 ^d μM |  | > 200 | > 200 | > 200 | 
CCCCCCCC1CC(=O)OC2C(OC(CCCCCCC)CC(=O)O1)OC(C)C(O)C2O (stereo not drawn) [Compound 5β] | induced a strong and long-lasting production of ROS following the initial burst at 200 min | 14 ± 2 µM | 50 to 112 |  |  |  | IC50 [9]: 110 ± 2 µM; IC50 [10]: 105 ± 5 µM; IC50 [11]: 103 ± 7 µM
CCCCCCCC1CC(=O)OC2C(O)C(C)OC(OC(CCCCCCC)CC(=O)O1)C2O (stereo not drawn) [Compound 6α] |  | >200 ^d μM |  |  |  |  | IC50 [9]: > 200 µM; IC50 [10]: > 200 µM; IC50 [11]: > 200 µM
CCCCCCCC1CC(=O)OC2C(O)C(C)OC(OC(CCCCCCC)CC(=O)O1)C2O (stereo not drawn) [Compound 6β] |  | 12.3 ± 0.5 µM | 50 to 112 | 112 ± 2 | 112 ± 3 | 110 ± 1 | 
COc1cc([C@@H]2c3cc4c(cc3[C@@H](O[C@@H]3O[C@@H]5CO[C@@H](C)O[C@H]5[C@H](O)[C@H]3O)[C@H]3COC(=O)[C@H]23)OCO4)cc(OC)c1O [Etoposide, reference compound] |  |  |  | 1.2 | 27 | 34 | 
Triton X-100 [reference compound] |  |  |  |  |  |  | Hemolysis (HC50 in μM) Erythrocytes [5]: c Half maximal inhibitory concentration measured on sheep blood erythrocytes. Triton X-100 was used as a positive control showing an HC50 value of 52 ± 2 μM.

Reference: article PMC8171317, “Total synthesis, isolation, surfactant properties, and biological evaluation of ananatosides and related macrodilactone-containing rhamnolipids” (Chemical Science, 2021)
